In patent US20230277527A1, “ROR-GAMMA MODULATORS” (Escalier Biosciences B.V., priority 2016, published 2023):

The compounds below were run on IMQ-induced psoriasis (assay: not given). Conditions: topical pre-treatment daily for 5 days, 4 hours before IMQ.

| SMILES | ear and back skin thickness | histopathology scoring | total psoriasis score |
| --- | --- | --- | --- |
| C[C@H]1C[C@H]2[C@@H]3CCC4=CC(=O)C=C[C@]4(C)[C@@]3(F)[C@@H](O)C[C@]2(C)[C@@]1(O)C(=O)CCl [clobetasol] | significantly decreased | significantly decreased | significantly decreased |

Each compound was assayed against RORγt (Homo sapiens (Human), UniProt P51449) (assay: RORγt Gal fusion assay (Gal4 ligand binding reporter assay)). Conditions: RORγt inverse agonists.
Sequence of RORγt (P51449 269-508): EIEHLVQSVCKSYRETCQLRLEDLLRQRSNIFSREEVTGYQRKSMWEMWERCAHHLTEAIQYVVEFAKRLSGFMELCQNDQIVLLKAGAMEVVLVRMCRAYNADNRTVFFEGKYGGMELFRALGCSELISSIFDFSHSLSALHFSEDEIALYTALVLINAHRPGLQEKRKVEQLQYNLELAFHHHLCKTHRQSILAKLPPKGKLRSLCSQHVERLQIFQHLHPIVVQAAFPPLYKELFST
Type: cell-based
Protocol: Human RORγ ligand binding assay was performed in 96-well format. The N-terminal DNA binding domains (DBD) of the native RORγ and RORγt receptors have been substituted with that of the yeast GAL4-DBD and RORγ is expressed constitutively in the cell line. Both agonist and inverse agonist activity can be detected. 10 mM compound stocks were diluted serially 1:3 with DMSO and further diluted with provided media to generate 10 titration points from 60 μM to 3 nM. These treatment conditions were added to the plates as 2× media in 100 μL volume. Each plate includes a positive control with 10 titration points as well as 6 negative control wells with vehicle only. Reporter cells were rapidly thawed and added to the plates in 100 μL volume. The plates were incubated for 24 hrs in a 37° C. humidified 5% CO2 incubator. Media was removed before the addition of room temperature Detection Substrate. After 5 minute incubation, the luminescence was quantified on a luminescence plate reader.

| IC50 | SMILES |
| --- | --- |
| < 1000 nM | CCOC(=O)C1CN(Cc2ccncc2)CCN1Cc1ccc(-c2ccc(C(O)(C(F)(F)F)C(F)(F)F)cc2)cc1 (stereo not shown) [Compound 9, ethyl 1-((4′-(1,1,1,3,3,3-hexafluoro-2-hydroxypropan-2-yl)-[1,1′-biphenyl]-4-yl)methyl)-4-(pyridin-4-ylmethyl)piperazine-2-carboxylate] |
| < 1000 nM | CCOC(=O)CC1CN(Cc2ccncc2)CCN1Cc1ccc(-c2ccc(C(O)(C(F)(F)F)C(F)(F)F)cc2)cc1 (stereo not shown) [Compound 10, ethyl 2-(1-((4′-(1,1,1,3,3,3-hexafluoro-2-hydroxypropan-2-yl)-[1,1′-biphenyl]-4-yl)methyl)-4-(pyridin-4-ylmethyl)piperazin-2-yl)acetate] |
| < 1000 nM | CCOC(=O)C1CN(Cc2ccc(-c3ccc(C(O)(C(F)(F)F)C(F)(F)F)cc3)cc2)CCN1Cc1ccncc1 (stereo not shown) [Compound 17, ethyl 4-((4′-(1,1,1,3,3,3-hexafluoro-2-hydroxypropan-2-yl)-[1,1′-biphenyl]-4-yl)methyl)-1-(pyridin-4-ylmethyl)piperazine-2-carboxylate] |
| < 1000 nM | CCOC(=O)CC1CN(Cc2ccc(-c3ccc(C(O)(C(F)(F)F)C(F)(F)F)cc3)cc2)CCN1Cc1ccncc1 (stereo not shown) [Compound 18, ethyl 2-(4-((4′-(1,1,1,3,3,3-hexafluoro-2-hydroxypropan-2-yl)-[1,1′-biphenyl]-4-yl)methyl)-1-(pyridin-4-ylmethyl)piperazin-2-yl)acetate] |
| > 10000 nM | O=C(O)C1CN(Cc2ccc(-c3ccc(C(O)(C(F)(F)F)C(F)(F)F)cc3)cc2)CCN1Cc1ccncc1 (stereo not shown) [Compound 20, 4-((4′-(1,1,1,3,3,3-hexafluoro-2-hydroxypropan-2-yl)-[1,1′-biphenyl]-4-yl)methyl)-1-(pyridin-4-ylmethyl)piperazine-2-carboxylic acid] |
| > 10000 nM | O=C(O)CC1CN(Cc2ccc(-c3ccc(C(O)(C(F)(F)F)C(F)(F)F)cc3)cc2)CCN1Cc1ccncc1 (stereo not shown) [Compound 21, 2-(4-((4′-(1,1,1,3,3,3-hexafluoro-2-hydroxypropan-2-yl)-[1,1′-biphenyl]-4-yl)methyl)-1-(pyridin-4-ylmethyl)piperazin-2-yl)acetic acid] |
| > 10000 nM | CC(C)NC(=O)C1CN(Cc2ccncc2)CCN1Cc1ccc(-c2ccc(C(O)(C(F)(F)F)C(F)(F)F)cc2)cc1 (stereo not shown) [Compound 24, 1-((4′-(1,1,1,3,3,3-hexafluoro-2-hydroxypropan-2-yl)-[1,1′-biphenyl]-4-yl)methyl)-N-isopropyl-4-(pyridin-4-ylmethyl)piperazine-2-carboxamide] |
| < 1000 nM | CC(C)OC(=O)CC1CN(Cc2ccc(-c3ccc(C(O)(C(F)(F)F)C(F)(F)F)cc3)cc2)CCN1Cc1ccncc1 (stereo not shown) [Compound 30, isopropyl 2-(4-((4′-(1,1,1,3,3,3-hexafluoro-2-hydroxypropan-2-yl)-[1,1′-biphenyl]-4-yl)methyl)-1-(pyridin-4-ylmethyl)piperazin-2-yl)acetate] |
| < 1000 nM | O=C(CC1CN(Cc2ccc(-c3ccc(C(O)(C(F)(F)F)C(F)(F)F)cc3)cc2)CCN1Cc1ccncc1)OCCO (stereo not shown) [Compound 31, 2-hydroxyethyl 2-(4-((4′-(1,1,1,3,3,3-hexafluoro-2-hydroxypropan-2-yl)-[1,1′-biphenyl]-4-yl)methyl)-1-(pyridin-4-ylmethyl)piperazin-2-yl)acetate] |
| < 1000 nM | CCOCCOC(=O)CC1CN(Cc2ccc(-c3ccc(C(O)(C(F)(F)F)C(F)(F)F)cc3)cc2)CCN1Cc1ccncc1 (stereo not shown) [Compound 32, 2-ethoxyethyl 2-(4-((4′-(1,1,1,3,3,3-hexafluoro-2-hydroxypropan-2-yl)-[1,1′-biphenyl]-4-yl)methyl)-1-(pyridin-4-ylmethyl)piperazin-2-yl)acetate] |
| < 1000 nM | CCOC(=O)CC1CN(Cc2ccc(-c3ccc(C(O)(C(F)(F)F)C(F)(F)F)cc3)c(C)c2)CCN1Cc1ccncc1 (stereo not shown) [Compound 35, ethyl 2-(4-((4′-(1,1,1,3,3,3-hexafluoro-2-hydroxypropan-2-yl)-2-methyl-[1,1′-biphenyl]-4-yl)methyl)-1-(pyridin-4-ylmethyl)piperazin-2-yl)acetate] |
| < 1000 nM | CCOC(=O)C[C@@H]1CN(Cc2ccc(-c3ccc(C(O)(C(F)(F)F)C(F)(F)F)cc3)cc2)CCN1Cc1ccncc1 [Compound 49, ethyl (R)-2-(4-((4′-(1,1,1,3,3,3-hexafluoro-2-hydroxypropan-2-yl)-[1,1′-biphenyl]-4-yl)methyl)-1-(pyridin-4-ylmethyl)piperazin-2-yl)acetate] |
| < 1000 nM | CCOCCOC(=O)C[C@H]1CN(Cc2ccc(-c3ccc(C(O)(C(F)(F)F)C(F)(F)F)cc3)cc2)CCN1Cc1ccncc1 [Compound 51, 2-ethoxyethyl (S)-2-(4-((4′-(1,1,1,3,3,3-hexafluoro-2-hydroxypropan-2-yl)-[1,1′-biphenyl]-4-yl)methyl)-1-(pyridin-4-ylmethyl)piperazin-2-yl)acetate] |
